Assay results taken from patent publication US20050233904A1, “Herbicide-safener combination” (Bayer CropScience GmbH, priority 2004, published 2005).

system: harmful plants such as Sinapis alba, Echinochloa crus-galli, Lolium multiflorum, Chrysanthemum segetum, Setaria viridis, Abutilon theophrasti, Amaranthus …; experiment: Post-emergence action against weeds (greenhouse pot test, visual scoring vs untreated controls); assay type: in vivo; conditions: herbicide-safener combination with the safeners dymron (b-14), fenclorim (b-11), cumyluron (b-4), isoxadifen-ethyl (II-9), mefenpyr-diethyl (II-1), cloquintocet-mexyl (III-1), S3-1, h-1, h-2, h-3, dietholate (b-7), disulfoton (b-5), 1,8-naphthalic anhydride (b-1), fluxofenim (b-10), dichlormid (IV-1), benoxacor (IV-2), flurazole (b-12), R-29148 (IV-4); treated at three-leaf stage; application rate
Description: (§1) Seeds or rhizome pieces of monocotyledonous and dicotyledonous weeds were placed into sandy loam soil in plastic pots, covered with soil and grown in a greenhouse under good growth conditions. Three weeks after sowing, the test plants were treated at the three-leaf stage. The compounds according to the invention, formulated as wettable powders or as emulsion concentrates, were sprayed onto the green parts of the plants at various dosages using a water application rate of 600 to 800 I/ha (converted). The test plants were stood in the greenhouse under optimum growth conditions for about three to four weeks, and the action of the preparations was then scored visually in comparison to untreated controls. Post-emergence, too, the herbicide-safener combinations according to the invention have good herbicidal activity against a broad spectrum of economically important weed grasses and broad-leaved weeds.

Compound | herbicidal activity against harmful plants, post-emergence method
CCOc1cc(OC)nc(NC(=O)NS(=O)(=O)c2ncccc2C2=NOCCO2)n1 [Compound I-1] | very good herbicidal activity
COc1cc(C)nc(NC(=O)[N-]S(=O)(=O)c2ncccc2C2=NOCCO2)n1.[Na+] [Compound I-3] | very good herbicidal activity
COc1cc(N(C)C)nc(NC(=O)NS(=O)(=O)c2ncccc2C2=NOCCO2)n1 [Compound I-8] | very good herbicidal activity
COc1cc(Cl)nc(NC(=O)NS(=O)(=O)c2ncccc2C2=NOCCO2)n1 [Compound I-9] | very good herbicidal activity
COc1cc(Cl)nc(NC(=O)[N-]S(=O)(=O)c2ncccc2C2=NOCCO2)n1.[Na+] [Compound I-10] | very good herbicidal activity
COc1cc(OC)nc(NC(=O)NS(=O)(=O)c2ncccc2C2=NOCCO2)n1 [Compound I-11] | very good herbicidal activity
COc1cc(OC)nc(NC(=O)[N-]S(=O)(=O)c2ncccc2C2=NOCCO2)n1.[Na+] [Compound I-12] | very good herbicidal activity
CCOc1cc(OCC)nc(NC(=O)[N-]S(=O)(=O)c2ncccc2C2=NOCCO2)n1.[Na+] [Compound I-14] | very good herbicidal activity
CCOc1cc(Cl)nc(NC(=O)NS(=O)(=O)c2ncccc2C2=NOCCO2)n1 [Compound I-21] | very good herbicidal activity
CCOc1cc(Cl)nc(NC(=O)[N-]S(=O)(=O)c2ncccc2C2=NOCCO2)n1.[Na+] [Compound I-22] | very good herbicidal activity
Cc1cc(C)nc(NC(=O)NS(=O)(=O)c2ncccc2C2=NOCCO2)n1 [Compound I-23] | very good herbicidal activity
Cc1cc(Cl)nc(NC(=O)NS(=O)(=O)c2ncccc2C2=NOCCO2)n1 [Compound I-29] | very good herbicidal activity
Cc1cc(Cl)nc(NC(=O)[N-]S(=O)(=O)c2ncccc2C2=NOCCO2)n1.[Na+] [Compound I-30] | very good herbicidal activity
COc1nc(NC(=O)NS(=O)(=O)c2ncccc2C2=NOCCO2)nc(OC)n1 [Compound I-51] | very good herbicidal activity
COc1nc(NC(=O)[N-]S(=O)(=O)c2ncccc2C2=NOCCO2)nc(OC)n1.[Na+] [Compound I-52] | very good herbicidal activity
COc1nc(NC(=O)[N-]S(=O)(=O)c2ncccc2C2=NOCCO2)nc(N(C)C)n1.[Na+] [Compound I-60] | very good herbicidal activity
CCOc1nc(Cl)nc(NC(=O)[N-]S(=O)(=O)c2ncccc2C2=NOCCO2)n1.[Na+] [Compound I-70] | very good herbicidal activity
CN(C)c1nc(NC(=O)NS(=O)(=O)c2ncccc2C2=NOCCO2)nc(OCC(F)(F)F)n1 [Compound I-142] | very good herbicidal activity
O=C(Nc1nc(Cl)cc(OCC(F)(F)F)n1)NS(=O)(=O)c1ncccc1C1=NOCCO1 [Compound I-143] | very good herbicidal activity
O=C([N-]S(=O)(=O)c1ncccc1C1=NOCCO1)Nc1nc(Cl)cc(OCC(F)(F)F)n1.[Na+] [Compound I-145] | very good herbicidal activity

system: harmful plants such as Sinapis alba, Chrysanthemum segetum, Avena sativa, Stellaria media, Echinochloa crus-galli, Lolium multiflorum, Setaria viridis …; experiment: Pre-emergence action against weeds (greenhouse pot test, optical scoring vs untreated controls); assay type: in vivo; conditions: herbicide-safener combination with the safeners dymron (b-14), fenclorim (b-11), cumyluron (b-4), isoxadifen-ethyl (II-9), mefenpyr-diethyl (II-1), cloquintocet-mexyl (III-1), S3-1, h-1, h-2, h-3, dietholate (b-7), disulfoton (b-5), 1,8-naphthalic anhydride (b-1), fluxofenim (b-10), dichlormid (IV-1), benoxacor (IV-2), flurazole (b-12), R-29148 (IV-4); application rate of 100 g or less of herbicid
Description: (§2) Seeds or rhizome pieces of monocotyledonous and dicotyledonous weed plants were placed in sandy loam soil in cardboard pots and covered with soil. The active compounds (A) and (B), formulated in the form of wettable powders or emulsion concentrates, were then applied to the surface of the covering soil in various dosages as an aqueous suspension or emulsion using a water application rate of 600 to 800 I/ha (converted).
After the treatment, the pots were placed in a greenhouse and kept under good growth conditions for the weeds. Optical scoring of the damage to the plants or emerged plants was carried out after emergence of the test plants after a trial period of 3 to 4 weeks, in comparison to untreated controls. As shown by the results, the tested herbicide-safener combinations have good herbicidal pre-emergence activity against a broad spectrum of weed grasses and broad-leaved weeds.

Compound | herbicidal activity against harmful plants, pre-emergence method
CCOc1cc(OC)nc(NC(=O)NS(=O)(=O)c2ncccc2C2=NOCCO2)n1 [Compound I-1] | very good herbicidal activity
COc1cc(C)nc(NC(=O)[N-]S(=O)(=O)c2ncccc2C2=NOCCO2)n1.[Na+] [Compound I-3] | very good herbicidal activity
COc1cc(N(C)C)nc(NC(=O)NS(=O)(=O)c2ncccc2C2=NOCCO2)n1 [Compound I-8] | very good herbicidal activity
COc1cc(Cl)nc(NC(=O)NS(=O)(=O)c2ncccc2C2=NOCCO2)n1 [Compound I-9] | very good herbicidal activity
COc1cc(Cl)nc(NC(=O)[N-]S(=O)(=O)c2ncccc2C2=NOCCO2)n1.[Na+] [Compound I-10] | very good herbicidal activity
COc1cc(OC)nc(NC(=O)NS(=O)(=O)c2ncccc2C2=NOCCO2)n1 [Compound I-11] | very good herbicidal activity
COc1cc(OC)nc(NC(=O)[N-]S(=O)(=O)c2ncccc2C2=NOCCO2)n1.[Na+] [Compound I-12] | very good herbicidal activity
CCOc1cc(OCC)nc(NC(=O)[N-]S(=O)(=O)c2ncccc2C2=NOCCO2)n1.[Na+] [Compound I-14] | very good herbicidal activity
CCOc1cc(Cl)nc(NC(=O)NS(=O)(=O)c2ncccc2C2=NOCCO2)n1 [Compound I-21] | very good herbicidal activity
CCOc1cc(Cl)nc(NC(=O)[N-]S(=O)(=O)c2ncccc2C2=NOCCO2)n1.[Na+] [Compound I-22] | very good herbicidal activity
Cc1cc(C)nc(NC(=O)NS(=O)(=O)c2ncccc2C2=NOCCO2)n1 [Compound I-23] | very good herbicidal activity
Cc1cc(Cl)nc(NC(=O)NS(=O)(=O)c2ncccc2C2=NOCCO2)n1 [Compound I-29] | very good herbicidal activity
Cc1cc(Cl)nc(NC(=O)[N-]S(=O)(=O)c2ncccc2C2=NOCCO2)n1.[Na+] [Compound I-30] | very good herbicidal activity
COc1nc(NC(=O)NS(=O)(=O)c2ncccc2C2=NOCCO2)nc(OC)n1 [Compound I-51] | very good herbicidal activity
COc1nc(NC(=O)[N-]S(=O)(=O)c2ncccc2C2=NOCCO2)nc(OC)n1.[Na+] [Compound I-52] | very good herbicidal activity
COc1nc(NC(=O)[N-]S(=O)(=O)c2ncccc2C2=NOCCO2)nc(N(C)C)n1.[Na+] [Compound I-60] | very good herbicidal activity
CCOc1nc(Cl)nc(NC(=O)[N-]S(=O)(=O)c2ncccc2C2=NOCCO2)n1.[Na+] [Compound I-70] | very good herbicidal activity
CN(C)c1nc(NC(=O)NS(=O)(=O)c2ncccc2C2=NOCCO2)nc(OCC(F)(F)F)n1 [Compound I-142] | very good herbicidal activity
O=C(Nc1nc(Cl)cc(OCC(F)(F)F)n1)NS(=O)(=O)c1ncccc1C1=NOCCO1 [Compound I-143] | very good herbicidal activity
O=C([N-]S(=O)(=O)c1ncccc1C1=NOCCO1)Nc1nc(Cl)cc(OCC(F)(F)F)n1.[Na+] [Compound I-145] | very good herbicidal activity

system: crop plants such as cotton, oil seed rape, sugar beet and Gramineae crops such as barley, wheat, rye, millet, corn or rice; experiment: not given; assay type: in vivo; conditions: herbicide-safener combination with the safeners dymron (b-14), fenclorim (b-11), cumyluron (b-4), isoxadifen-ethyl (II-9), mefenpyr-diethyl (II-1), cloquintocet-mexyl (III-1), S3-1, h-1, h-2, h-3, dietholate (b-7), disulfoton (b-5), 1,8-naphthalic anhydride (b-1), fluxofenim (b-10), dichlormid (IV-1), benoxacor (IV-2), flurazole (b-12), R-29148 (IV-4); pre-emergence or post-emergence method; score
Description: as §2, §1
In further greenhouse trials, seeds of a relatively large number of crop plants and weeds were placed into sandy loam soil and covered with soil. Some of the pots were immediately treated as described in Section 1, the others were placed in a greenhouse until the plants had developed two to three true leaves and were then sprayed with various dosages of the herbicide-safener combinations according to the invention, as described in Section 2.

Compound | damage to crop plants
CCOc1cc(OC)nc(NC(=O)NS(=O)(=O)c2ncccc2C2=NOCCO2)n1 [Compound I-1] | did not cause any damage
COc1cc(C)nc(NC(=O)[N-]S(=O)(=O)c2ncccc2C2=NOCCO2)n1.[Na+] [Compound I-3] | did not cause any damage
COc1cc(N(C)C)nc(NC(=O)NS(=O)(=O)c2ncccc2C2=NOCCO2)n1 [Compound I-8] | did not cause any damage
COc1cc(Cl)nc(NC(=O)NS(=O)(=O)c2ncccc2C2=NOCCO2)n1 [Compound I-9] | did not cause any damage
COc1cc(Cl)nc(NC(=O)[N-]S(=O)(=O)c2ncccc2C2=NOCCO2)n1.[Na+] [Compound I-10] | did not cause any damage
COc1cc(OC)nc(NC(=O)NS(=O)(=O)c2ncccc2C2=NOCCO2)n1 [Compound I-11] | did not cause any damage
COc1cc(OC)nc(NC(=O)[N-]S(=O)(=O)c2ncccc2C2=NOCCO2)n1.[Na+] [Compound I-12] | did not cause any damage
CCOc1cc(OCC)nc(NC(=O)[N-]S(=O)(=O)c2ncccc2C2=NOCCO2)n1.[Na+] [Compound I-14] | did not cause any damage
CCOc1cc(Cl)nc(NC(=O)NS(=O)(=O)c2ncccc2C2=NOCCO2)n1 [Compound I-21] | did not cause any damage
CCOc1cc(Cl)nc(NC(=O)[N-]S(=O)(=O)c2ncccc2C2=NOCCO2)n1.[Na+] [Compound I-22] | did not cause any damage
Cc1cc(C)nc(NC(=O)NS(=O)(=O)c2ncccc2C2=NOCCO2)n1 [Compound I-23] | did not cause any damage
Cc1cc(Cl)nc(NC(=O)NS(=O)(=O)c2ncccc2C2=NOCCO2)n1 [Compound I-29] | did not cause any damage
Cc1cc(Cl)nc(NC(=O)[N-]S(=O)(=O)c2ncccc2C2=NOCCO2)n1.[Na+] [Compound I-30] | did not cause any damage
COc1nc(NC(=O)NS(=O)(=O)c2ncccc2C2=NOCCO2)nc(OC)n1 [Compound I-51] | did not cause any damage
COc1nc(NC(=O)[N-]S(=O)(=O)c2ncccc2C2=NOCCO2)nc(OC)n1.[Na+] [Compound I-52] | did not cause any damage
COc1nc(NC(=O)[N-]S(=O)(=O)c2ncccc2C2=NOCCO2)nc(N(C)C)n1.[Na+] [Compound I-60] | did not cause any damage
CCOc1nc(Cl)nc(NC(=O)[N-]S(=O)(=O)c2ncccc2C2=NOCCO2)n1.[Na+] [Compound I-70] | did not cause any damage
CN(C)c1nc(NC(=O)NS(=O)(=O)c2ncccc2C2=NOCCO2)nc(OCC(F)(F)F)n1 [Compound I-142] | did not cause any damage
O=C(Nc1nc(Cl)cc(OCC(F)(F)F)n1)NS(=O)(=O)c1ncccc1C1=NOCCO1 [Compound I-143] | did not cause any damage
O=C([N-]S(=O)(=O)c1ncccc1C1=NOCCO1)Nc1nc(Cl)cc(OCC(F)(F)F)n1.[Na+] [Compound I-145] | did not cause any damage
